According to ChEMBL document CHEMBL3758137 (Eur J Med Chem, 2016):

Columns and labels:
[1] = biological target: Hepatocyte growth factor receptor (Homo sapiens, UniProt P08581); test: Inhibition of recombinant c-Met (unknown origin) using poly (Glu,Tyr)4:1 as substrate after 60 mins by ELISA
[2] = Antiproliferative activity against human EBC1 cells after 72 hrs by SRB assay; conditions: EBC-1, 72 h
[3] = Solubility of compound in TRIS buffer by nephelometric analysis in presence of 0.1% BSA; format: physicochemical; conditions: TRIS buffer with 0.1% BSA
Liver microsome [4] = test: Intrinsic clearance in human liver microsomes at 0.1 uM after 7 to 60 mins by LC-MS/MS analysis; format: ADME
[5] = Intrinsic clearance in mouse liver microsomes at 0.1 uM after 7 to 60 mins by LC-MS/MS analysis; format: ADME
[6] = Apparent permeability from basolateral to apical side in human Caco2 cells after 35 to 95 mins by LC-MS/MS analysis; format: ADME, cell-based; conditions: Caco-2
[7] = Apparent permeability from apical to basolateral side in human Caco2 cells after 35 to 95 mins by LC-MS/MS analysis; format: ADME, cell-based; conditions: Caco-2
[8] = Solubility of compound in HBSS/HEPES buffer at pH 7.4 by nephelometric analysis in presence of 0.1% BSA; format: physicochemical; conditions: HBSS/HEPES buffer with 0.1% BSA
Liver microsome [9] = test: Intrinsic clearance in rat liver microsomes at 0.1 uM after 7 to 60 mins by LC-MS/MS analysis; format: ADME
[10] = Solubility of compound in HBSS/HEPES buffer at pH 6.8 by nephelometric analysis in presence of 0.1% BSA; format: physicochemical; conditions: HBSS/HEPES buffer with 0.1% BSA
[11] = Antitumor activity against human EBC1 cells xenografted in nude mouse assessed as tumor growth inhibition at 50 mg/kg, po qd administered for 21 days relative to control; format: functional; conditions: EBC-1, po, 504 h, read-out: TGI

Chain of Hepatocyte growth factor receptor (P08581 whole entry): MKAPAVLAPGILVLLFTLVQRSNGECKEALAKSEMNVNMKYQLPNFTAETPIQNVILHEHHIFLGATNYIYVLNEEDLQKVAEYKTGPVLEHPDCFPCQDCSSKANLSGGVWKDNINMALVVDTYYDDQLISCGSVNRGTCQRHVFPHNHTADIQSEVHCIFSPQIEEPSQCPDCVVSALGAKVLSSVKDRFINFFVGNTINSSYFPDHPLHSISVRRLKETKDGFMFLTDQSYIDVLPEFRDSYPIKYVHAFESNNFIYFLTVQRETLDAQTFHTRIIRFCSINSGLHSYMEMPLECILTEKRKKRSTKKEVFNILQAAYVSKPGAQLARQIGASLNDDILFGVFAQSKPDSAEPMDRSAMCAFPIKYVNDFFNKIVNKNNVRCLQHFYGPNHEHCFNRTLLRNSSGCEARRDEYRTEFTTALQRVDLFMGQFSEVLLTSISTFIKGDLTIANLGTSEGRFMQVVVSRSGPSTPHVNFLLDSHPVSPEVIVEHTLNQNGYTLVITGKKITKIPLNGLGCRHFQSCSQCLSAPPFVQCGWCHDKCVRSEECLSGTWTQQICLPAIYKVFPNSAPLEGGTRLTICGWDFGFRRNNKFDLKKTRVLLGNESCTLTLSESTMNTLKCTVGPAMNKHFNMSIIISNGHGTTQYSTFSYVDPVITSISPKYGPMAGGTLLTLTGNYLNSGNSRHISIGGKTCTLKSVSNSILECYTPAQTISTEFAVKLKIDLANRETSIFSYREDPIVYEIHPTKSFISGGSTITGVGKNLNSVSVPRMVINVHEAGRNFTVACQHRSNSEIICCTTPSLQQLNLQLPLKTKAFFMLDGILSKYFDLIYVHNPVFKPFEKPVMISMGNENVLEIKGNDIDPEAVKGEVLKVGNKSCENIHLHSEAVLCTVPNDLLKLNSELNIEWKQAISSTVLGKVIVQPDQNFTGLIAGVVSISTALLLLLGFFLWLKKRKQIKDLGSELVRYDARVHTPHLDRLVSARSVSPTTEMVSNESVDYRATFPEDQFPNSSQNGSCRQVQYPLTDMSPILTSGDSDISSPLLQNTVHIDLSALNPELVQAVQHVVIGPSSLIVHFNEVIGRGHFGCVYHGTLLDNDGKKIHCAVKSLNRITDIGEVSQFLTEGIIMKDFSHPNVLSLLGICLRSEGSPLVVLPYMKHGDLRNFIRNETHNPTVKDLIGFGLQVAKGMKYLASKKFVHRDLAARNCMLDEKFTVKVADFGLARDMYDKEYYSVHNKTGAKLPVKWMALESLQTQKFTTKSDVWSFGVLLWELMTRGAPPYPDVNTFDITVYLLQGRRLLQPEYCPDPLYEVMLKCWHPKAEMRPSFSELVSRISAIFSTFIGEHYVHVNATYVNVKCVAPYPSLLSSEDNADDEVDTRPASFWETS

In the case of CN1CCN(Cc2cnc(Nc3cccc(Cn4nc(-c5cnn(C)c5)ccc4=O)c3)nc2)CC1, the IC50 [1] is reported as over 100 nM and the IC50 [2] is reported as over 200 nM.
Work on Cn1cc(-c2ccc(=O)n(Cc3cccc(Nc4ncc(-c5cnn(CCO)c5)cn4)c3)n2)cn1 yielded an IC50 [2] of 48.7 nM.
CN(C)C(=O)c1ccc(-c2ccc(=O)n(Cc3cccc(Nc4ncc(-c5cnn(C)c5)cn4)c3)n2)cc1F showed an IC50 [2] of 102 nM.
In the case of Cn1cc(-c2cnc(Nc3cccc(Cn4nc(-c5cnn(CCO)c5)ccc4=O)c3)nc2)cn1, the IC50 [2] is reported as 99.8 nM.
Molecule Cn1cc(-c2cnc(Nc3cccc(Cn4nc(-c5ccncc5)ccc4=O)c3)nc2)cn1 has an IC50 [2] of over 200 nM.
With Cn1cc(-c2cnc(Nc3cccc(Cn4nc(-c5cccc(C#N)c5)ccc4=O)c3)nc2)cn1 the IC50 [2] was 108 nM.
In the case of CN1CCC(n2cc(-c3cnc(Nc4cccc(Cn5nc(-c6cnn(C)c6)ccc5=O)c4)nc3)cn2)CC1, the IC50 [2] is reported as 65 nM.
Molecule Cn1cc(-c2cnc(Nc3cccc(Cn4nc(-c5ccc(C(=O)O)c(F)c5)ccc4=O)c3)nc2)cn1 has an IC50 [2] of over 200 nM.
Molecule CC(C)n1cc(-c2cnc(Nc3cccc(Cn4nc(-c5cnn(C)c5)ccc4=O)c3)nc2)cn1 has an IC50 [2] of 94.6 nM.
With Cn1cc(-c2ccc(=O)n(Cc3cccc(Nc4ncn(C)n4)c3)n2)cn1 the IC50 [1] was over 100 nM and the IC50 [2] was over 200 nM.
Molecule Cn1cc(-c2ccc(=O)n(Cc3cccc(Nc4ncc(-c5cccnc5)cn4)c3)n2)cn1 has an IC50 [2] of over 200 nM.
Work on Cn1cc(-c2cnc(Nc3cccc(Cn4nc(-c5cccc(S(C)(=O)=O)c5)ccc4=O)c3)nc2)cn1 yielded an IC50 [2] of over 200 nM.
Cn1cc(-c2ccc(=O)n(Cc3cccc(Nc4ncccn4)c3)n2)cn1 gave an IC50 [1] of over 100 nM and an IC50 [2] of over 200 nM.
CNC(=O)c1ccc(-c2ccc(=O)n(Cc3cccc(Nc4ncc(-c5cnn(C)c5)cn4)c3)n2)cc1F gave a solubility kinetic [3] of 2 µM, a CLH (Liver microsome [4]) of 28 mL/min/g and a CLH [5] of 50 mL/min/g. For the same molecule, the Papp B→A [6] was 17.4 ×10⁻⁶ cm/s, the Papp A→B [7] was 1.7 ×10⁻⁶ cm/s and the solubility kinetic [8] was 2 µM. The CLH (Liver microsome [9]) was 64 mL/min/g, the solubility kinetic [10] was 2 µM and the IC50 [2] was 31.3 nM.
For COCCOc1cnc(Nc2cccc(Cn3nc(-c4cnn(C)c4)ccc3=O)c2)nc1, the IC50 [2] was over 200 nM.
Molecule Cn1cc(-c2cnc(Nc3cccc(Cn4nc(-c5ccc(Cl)c(C(F)(F)F)c5)ccc4=O)c3)nc2)cn1 has an IC50 [2] of 65 nM.
In the case of Cn1cc(-c2ccc(=O)n(Cc3cccc(Nc4ncc(-c5cncs5)cn4)c3)n2)cn1, the IC50 [2] is reported as over 200 nM.
Cn1cc(-c2ccc(Nc3cccc(Cn4nc(-c5cnn(C)c5)ccc4=O)c3)nc2)cn1 showed an IC50 [1] of over 100 nM and an IC50 [2] of over 200 nM.
Cn1cc(-c2cnc(Nc3cccc(Cn4nc(-c5ccc(S(C)(=O)=O)cc5)ccc4=O)c3)nc2)cn1 showed an IC50 [2] of 73.4 nM.
For C[C@@H](Oc1cc(-c2cnn(C3CCNCC3)c2)cnc1N)c1c(Cl)ccc(F)c1Cl [CRIZOTINIB], the inhibition in vivo at 50 mg/kg [11] was 108% and the IC50 [2] was 19 nM.
Work on Cn1cc(-c2ccnc(Nc3cccc(Cn4nc(-c5cnn(C)c5)ccc4=O)c3)n2)cn1 yielded an IC50 [1] of over 100 nM and an IC50 [2] of over 200 nM.
Cn1cc(-c2cnc(Nc3cccc(Cn4nc(-c5cccc(C(=O)O)c5)ccc4=O)c3)nc2)cn1 showed an IC50 [2] of over 200 nM.
Molecule Cn1cc(-c2ccc(=O)n(Cc3cccc(Nc4nc5ccccc5[nH]4)c3)n2)cn1 has an IC50 [1] of over 100 nM and an IC50 [2] of over 200 nM.
For Cn1cc(-c2cnc(Nc3cccc(Cn4nc(-c5cccnc5)ccc4=O)c3)nc2)cn1, the IC50 [2] was over 200 nM.
